# Entries after “also recorded” stand apart in the source; their conditions may differ.
# Experiments:
# [1] = IC accumulation: ratio of IC drug to drug in plasma; conditions: human, oral, GM IC to Plasma Ratio
# [2] = Steady-state intracellular; format: in vivo, human; conditions: IC (PBMC); for GM AUC (darunavir, ritonavir) / GM AUC: AUC0–24; for Cmax / concentration at 24 h: human, oral; for Cmax: GM Cmax; for concentration at 24 h: GM Ctrough
# [3] = Steady-state plasma pharmacokinetics; format: in vivo, human; conditions: for Cmax / concentration at 24 h: human; for Cmax: GM Cmax; for concentration at 24 h: GM Ctrough
# [4] = PBMC (intracellular)/plasma, Cmax, group 1, period 3 (day 49): darunavir/ritonavir 800/100 mg once daily, without raltegravir
# [5] = PBMC (intracellular)/plasma, Cmax, group 2, period 3 (day 49): darunavir/ritonavir 800/100 mg once daily, without raltegravir
# [6] = PBMC (intracellular)/plasma, Ctrough, group 1, period 3 (day 49): darunavir/ritonavir 800/100 mg once daily, without raltegravir
# [7] = PBMC (intracellular)/plasma, Ctrough, group 2, period 3 (day 49): darunavir/ritonavir 800/100 mg once daily, without raltegravir
# [8] = intracellular (PBMC) / plasma, AUC (darunavir, ritonavir), group 1, period 2 (day 35): darunavir/ritonavir 800/100 mg once daily + raltegravir 400 mg twice daily
# [9] = intracellular (PBMC) / plasma, AUC (darunavir, ritonavir), group 2, period 2 (day 35): darunavir/ritonavir 800/100 mg once daily + raltegravir 800 mg once daily
# [10] = intracellular (PBMC) / plasma, AUC, group 1, period 3 (day 49): darunavir/ritonavir 800/100 mg once daily, without raltegravir
# [11] = intracellular (PBMC) / plasma, AUC, group 2, period 3 (day 49): darunavir/ritonavir 800/100 mg once daily, without raltegravir
# [12] = intracellular (PBMC) / plasma, Cmax, group 1, period 2 (day 35): raltegravir 400 mg twice daily + darunavir/ritonavir 800/100 mg once daily
# [13] = intracellular (PBMC) / plasma, Cmax, group 2, period 2 (day 35): raltegravir 800 mg once daily + darunavir/ritonavir 800/100 mg once daily
# [14] = intracellular (PBMC) / plasma, Ctrough, group 1, period 2 (day 35): raltegravir 400 mg twice daily + darunavir/ritonavir 800/100 mg once daily
# [15] = intracellular (PBMC) / plasma, Ctrough, group 2, period 2 (day 35): raltegravir 800 mg once daily + darunavir/ritonavir 800/100 mg once daily
# [16] = group 1, period 2 (day 35): raltegravir 400 mg twice daily + darunavir/ritonavir 800/100 mg once daily
# [17] = group 1, period 3 (day 49): darunavir/ritonavir 800/100 mg once daily, without raltegravir
# [18] = group 2, period 3 (day 49): darunavir/ritonavir 800/100 mg once daily, without raltegravir
# [19] = PBMC, group 2, period 2 (day 35): raltegravir 800 mg once daily + darunavir/ritonavir 800/100 mg once daily
# [20] = oral, group 1, period 3 (day 49): darunavir/ritonavir 800/100 mg once daily, without raltegravir
# [21] = oral, group 2, period 3 (day 49): darunavir/ritonavir 800/100 mg once daily, without raltegravir
smiles,measurement,setting,value
"CC(C)CN(C[C@@H](O)[C@H](Cc1ccccc1)NC(=O)O[C@H]1CO[C@H]2OCC[C@H]21)S(=O)(=O)c1ccc(N)cc1 [Darunavir, darunavir]",Kp,[1]; [4],6.8
same,Kp,[1]; [5],4.8
same,Kp,[1]; [6],4.8
same,Kp,[1]; [7],4.4
same,Kp,[1]; [8],5.3
same,Kp,[1]; [9],5.6
same,Kp,[1]; [10],5.3
same,Kp,[1]; [11],4.9
same,Kp,[1]; [12],6.8
same,Kp,[1]; [13],6.3
same,Kp,[1]; [14],4.4
same,Kp at 24 h,[1]; [15],4.3
"CC(C)c1nc(CN(C)C(=O)N[C@H](C(=O)N[C@@H](Cc2ccccc2)C[C@H](O)[C@H](Cc2ccccc2)NC(=O)OCc2cncs2)C(C)C)cs1 [Ritonavir, ritonavir]","GM AUC (darunavir, ritonavir)","[2]; group 1, period 2 (day 35): darunavir/ritonavir 800/100 mg once daily + raltegravir 400 mg twice daily","33,789 ng·h^−1·mL^−1"
same,GM Ctrough,[2]; [16],458 ng/mL
same,GM AUC,[2]; [17],"36,769 ng·h^−1·mL^−1"
same,"GM AUC (darunavir, ritonavir)","[2]; group 2, period 2 (day 35): darunavir/ritonavir 800/100 mg once daily + raltegravir 800 mg once daily","28,683 ng·h^−1·mL^−1"
same,GM AUC,[2]; [18],"27,652 ng·h^−1·mL^−1"
same,Cmax,"[2]; PBMC (intracellular), group 1, period 3 (day 49): darunavir/ritonavir 800/100 mg once daily, without raltegravir",4040 ng/mL
same,Cmax,"[2]; PBMC (intracellular), group 2, period 3 (day 49): darunavir/ritonavir 800/100 mg once daily, without raltegravir",2610 ng/mL
same,Cmax,"[2]; PBMC, group 1, period 2 (day 35): raltegravir 400 mg twice daily + darunavir/ritonavir 800/100 mg once daily",3880 ng/mL
same,Cmax,[2]; [19],3290 ng/mL
same,concentration at 24 h,"[2]; PBMC, group 1, period 3 (day 49): darunavir/ritonavir 800/100 mg once daily, without raltegravir",478 ng/mL
same,concentration at 24 h,[2]; [19],329 ng/mL
same,concentration at 24 h,"[2]; PBMC, group 2, period 3 (day 49): darunavir/ritonavir 800/100 mg once daily, without raltegravir",369 ng/mL
same,Kp,[1]; [4],13.5
same,Kp,[1]; [5],5.2
same,Kp,[1]; [6],11.7
same,Kp,[1]; [7],10.6
same,Kp,[1]; [8],10
same,Kp,[1]; [9],6.9
same,Kp,[1]; [10],9.5
same,Kp,[1]; [11],6.5
same,Kp,[1]; [12],13.8
same,Kp,[1]; [13],5.7
same,Kp,[1]; [14],12
same,Kp at 24 h,[1]; [15],10.1
same,"GM AUC (darunavir, ritonavir)","[3]; group 1, period 2 (day 35): darunavir/ritonavir 800/100 mg once daily + raltegravir 400 mg twice daily, AUC0–24",4299 ng/h/mL
same,"GM AUC (darunavir, ritonavir)","[3]; group 1, period 2 (day 35): darunavir/ritonavir 800/100 mg once daily + raltegravir 400 mg twice daily, AUC0–24, listed as ritonavir",4299 (3823–5176) ng·h^−1·mL^−1
same,GM Ctrough,[3]; [16],48 ng/mL
same,GM Ctrough,[3]; [17],44 ng/mL
same,GM AUC,"[3]; group 1, period 3 (day 49): darunavir/ritonavir 800/100 mg once daily, without raltegravir, AUC0–24",4568 ng/h/mL
same,GM AUC,"[3]; group 1, period 3 (day 49): darunavir/ritonavir 800/100 mg once daily, without raltegravir, AUC0–24, listed as ritonavir",4568 (4070–5427) ng·h^−1·mL^−1
same,"GM AUC (darunavir, ritonavir)","[3]; group 2, period 2 (day 35): darunavir/ritonavir 800/100 mg once daily + raltegravir 800 mg once daily, AUC0–24",4359 ng/h/mL
same,"GM AUC (darunavir, ritonavir)","[3]; group 2, period 2 (day 35): darunavir/ritonavir 800/100 mg once daily + raltegravir 800 mg once daily, AUC0–24, listed as ritonavir",4359 (3816–5443) ng·h^−1·mL^−1
same,GM Ctrough,"[3]; group 2, period 2 (day 35): raltegravir 800 mg once daily + darunavir/ritonavir 800/100 mg once daily",34 ng/mL
same,GM Ctrough,[3]; [18],36 ng/mL
same,GM AUC,"[3]; group 2, period 3 (day 49): darunavir/ritonavir 800/100 mg once daily, without raltegravir, AUC0–24",4516 ng/h/mL
same,GM AUC,"[3]; group 2, period 3 (day 49): darunavir/ritonavir 800/100 mg once daily, without raltegravir, AUC0–24, listed as ritonavir",4516 (3798–5986) ng·h^−1·mL^−1
same,Cmax,[3]; [16],483 ng/mL
same,Cmax,[3]; [20],528 ng/mL
same,Cmax,[3]; [21],527 ng/mL
same,concentration at 24 h,[3]; [20],44 ng/mL
same,concentration at 24 h,"[3]; oral, group 2, period 2 (day 35): raltegravir 800 mg once daily + darunavir/ritonavir 800/100 mg once daily",34 ng/mL
same,concentration at 24 h,[3]; [21],36 ng/mL
same,PK exposure parameters with versus without raltegravir,[3]; periods 2 and 3,comparable; also recorded: not affected

# Reference: PMC3594701 (Journal of acquired immune deficiency syndromes (1999), 2011)
